We go through 24 molecules from patent publication US20250145596A1, “HETEROCYCLIC GLP-1 AGONISTS” (Gasherbrum Bio, Inc., priority 2022, published 2025).

The target in this assay is T1, GLP-1 Receptor (Homo sapiens, UniProt P43220).
T1 construct: host or cells: HEK293/CRE-Luc
Description: GLP-1R agonist cAMP stimulation assay. In kind it is cell-based. The settings on record: HEK293/CRE-Luc cell line stably expressing the GLP-1 Receptor; 30 min at 37° C.; cAMP dynamic 2 Kit. As to the method:
Activation of GLP-1 receptor is known to stimulate cyclic AMP (cAMP) production in cells which indicates primary coupling to the Gas subunit of the G protein heterotrimeric complex.
To optimize functional activity directed toward Gas coupling, a HEK293/CRE-Luc cell line developed by HDB stably expressing the GLP-1 Receptor was used. 200× concentration of compound working solutions were prepared (Agilent Technologies Bravo) with ½ log serial dilution in 384-well Echo LDV plate (Labcyte, Cat #LP-0200). 50 nL/well 200× concentration of compound working solutions were moved to 384-well white low volume plate (Greiner, Cat #784075) using Labcyte ECHO550. 1×10^5 cells/mL HEK293/GLPlR/CRE-LUC (HD Biosciences) cell suspensions prepared with assay buffer [DPBS containing 0.5 mM IBMX (Sigma, Cat #15879) and 0.1% BSA (GENVIEW, Cat #FA016-100g)], 10 μL cell suspensions were added to each well of previous generated assay plate which already contains 50 nL compound at 200× concentration using ThermoFisher Multidrop Combi (1000 cells/well). Seal the plate and incubate at 37° C. with 5% CO2 for 30 min.
After incubation the cAMP assay signal was generated using cAMP dynamic 2 Kit (Cisbio). 5 μL cAMP-d2 working solution was added to each well, followed with 5 μL Anti-cAMP antibody-cryptate working solution added to each well using ThermoFisher Multidrop Combi. Incubate at room temperature for 1 hour protected from light. Read the fluorescence at 665 and 615 nm with Reader PerkinElmer EnVision.
% Activity=100%×(mean RLU of test sample mean RLU of vehicle control)/(mean RLU of MAX control−mean RLU of vehicle control))

Where only a bound is given, the exact number is not on record here.

T1 sequence (P43220 24-463): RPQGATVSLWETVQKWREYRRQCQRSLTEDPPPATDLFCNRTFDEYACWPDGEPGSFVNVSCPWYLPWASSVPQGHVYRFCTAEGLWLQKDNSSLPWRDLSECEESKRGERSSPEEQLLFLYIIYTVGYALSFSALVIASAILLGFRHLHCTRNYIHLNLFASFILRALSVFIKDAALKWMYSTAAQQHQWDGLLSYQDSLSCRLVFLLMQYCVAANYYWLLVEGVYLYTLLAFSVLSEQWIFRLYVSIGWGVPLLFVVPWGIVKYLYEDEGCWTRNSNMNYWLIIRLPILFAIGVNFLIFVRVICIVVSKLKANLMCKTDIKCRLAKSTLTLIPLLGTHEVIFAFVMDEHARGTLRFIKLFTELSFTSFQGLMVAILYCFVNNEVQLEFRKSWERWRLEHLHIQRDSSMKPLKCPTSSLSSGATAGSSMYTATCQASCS

One may read the EC50 as the concentration that produces a half-maximal response. A lower EC50 goes with a more potent agent. Molecule `CC1(c2ccc(Cl)cc2F)Oc2c(F)ccc(C3CCN(Cc4ncc(-c5nnc(C(F)(F)F)[nH]5)cc4CC4(C#N)CC4)CC3)c2O1` (stereo not drawn) [Example 12, 1-{[2-({4-[2-(4-chloro-2-fluorophenyl)-7-fluoro-2-methyl-2H-1,3-benzodioxol-4-yl]piperidin-1-yl}methyl)-5-[5-(trifluoromethyl)-4H-1,2,4-triazol-3-yl]pyridin-3-yl]methyl}cyclopropane-1-carbonitrile] yielded an EC50 of under 1 nM.
The molecule `N#CC1(Cc2cc(-c3nnc(C(F)(F)F)[nH]3)cnc2CN2CC=C(c3ccc(F)c(OCc4ccc(Cl)cc4F)c3)CC2)CC1` [Example 48, 1-({2-[(4-{3-[(4-chloro-2-fluorophenyl)methoxy]-4-fluorophenyl}-1,2,3,6-tetrahydropyridin-1-yl)methyl]-5-[5-(trifluoromethyl)-4H-1,2,4-triazol-3-yl]pyridin-3-yl}methyl)cyclopropane-1-carbonitrile] came in with an EC50 of 1 to 100 nM.
Molecule `CC1(c2ccccc2F)Oc2ccc(F)c(C3CCN(Cc4ncc(-c5nnc(C(F)(F)F)[nH]5)cc4CC4(C#N)CC4)CC3)c2O1` (stereo not drawn) [Example 80] gave an EC50 of 1 to 100 nM.
In turn, `CS(=O)(=O)Cc1cc(-c2nnc(C(F)(F)F)[nH]2)cnc1CN1CCC(Oc2cccc(Cc3ccc(Cl)cc3F)n2)CC1` [Example 87] had an EC50 of 1 to 100 nM.
`COCCc1cc(-c2nnc(C(F)(F)F)[nH]2)cnc1CN1CCC(c2cccc3c2O[C@@](C)(c2ccc(Cl)cn2)O3)CC1` [Example 89]: the EC50 is 1 to 100 nM.
As for `N#CC1(Cc2cc(-c3nnc(C(F)(F)F)[nH]3)cnc2CN2CCC(c3cccnc3OCc3ccc(Cl)cc3F)CC2)CC1` [Example 37, 1-({2-[(4-{2-[(4-chloro-2-fluorophenyl)methoxy]pyridin-3-yl}piperidin-1-yl)methyl]-5-[5-(trifluoromethyl)-4H-1,2,4-triazol-3-yl]pyridin-3-yl}methyl)cyclopropane-1-carbonitrile], the half-maximal effective concentration (EC50) was under 1 nM.
In the case of `Cc1cc(-c2nnc(C(F)(F)F)[nH]2)nnc1CN1CCC(c2cccc3c2O[C@@](C)(c2ccc(Cl)cc2F)O3)CC1` [Example 49, (S)-3-((4-(2-(4-chloro-2-fluorophenyl)-2-methylbenzo[d][1,3]dioxol-4-yl)piperidin-1-yl)methyl)-4-methyl-6-(5-(trifluoromethyl)-4H-1,2,4-triazol-3-yl)pyridazine], the EC50 was 1 to 100 nM.
On to `Cc1ccc(C2(C)Oc3cccc(C4CCN(Cc5ncc(-c6nnc(C(F)(F)F)[nH]6)cc5CC5(C#N)CC5)CC4)c3O2)cn1` (stereo not drawn) [Example 11, 1-{[2-({4-[2-Methyl-2-(6-methylpyridin-3-yl)-2H-1,3-benzodioxol-4-yl]piperidin-1-yl}methyl)-5-[5-(trifluoromethyl)-4H-1,2,4-triazol-3-yl]pyridin-3-yl]methyl}cyclopropane-1-carbonitrile], for which the EC50 was under 1 nM.
For the molecule `Cc1ccc(C2(C)Oc3cccc(C4CCN(Cc5ncc(-c6nnc(C(F)(F)F)[nH]6)cc5CC5(C#N)CC5)CC4)c3O2)c(Cl)c1` (stereo not drawn) [Example 6, 1-((2-((4-(2-(2-Chloro-4-methylphenyl)-2-methylbenzo[d][1,3]dioxol-4-yl)piperidin-1-yl)methyl)-5-(5-(trifluoromethyl)-4H-1,2,4-triazol-3-yl)pyridin-3-yl)methyl)cyclopropane-1-carbonitrile], the EC50 is under 1 nM.
The result for `CCS(=O)(=O)Cc1cc(-c2nnc(C(F)(F)F)[nH]2)cnc1CN1CCC(c2cccc3c2O[C@@](C)(c2ccc(Cl)cc2F)O3)CC1` [Example 59, 2-({4-[(2S)-2-(4-chloro-2-fluorophenyl)-2-methyl-2H-1,3-benzodioxol-4-yl]piperidin-1-yl}methyl)-3-[(ethanesulfonyl)methyl]-5-[5-(trifluoromethyl)-4H-1,2,4-triazol-3-yl]pyridine] reads under 1 nM.
Molecule `Cc1cc(-c2noc(=O)[nH]2)cnc1CN1CCC(c2cccc(OCc3ccc(Cl)cc3F)n2)CC1` [Example 95] displayed an EC50 of over 100 nM.
`N#CC1(Cc2cc(-c3nnc(C(F)(F)F)[nH]3)cnc2CN2CCC(c3ncc(F)c(OCc4ccc(Cl)cc4F)n3)CC2)CC1` [Example 36, 1-((2-((4-(4-((4-chloro-2-fluorobenzyl)oxy)-5-fluoropyrimidin-2-yl)piperidin-1-yl)methyl)-5-(5-(trifluoromethyl)-4H-1,2,4-triazol-3-yl)pyridin-3-yl)methyl)cyclopropane-1-carbonitrile] yielded an EC50 of under 1 nM.
Consider `N#CC1(Cc2cc(-c3nnc(C(F)(F)F)[nH]3)cnc2CN2CCC(c3cccc(OCc4ccc(Cl)c5ccoc45)n3)CC2)CC1` [Example 64, 1-((2-((4-(6-((4-chlorobenzofuran-7-yl)methoxy)pyridin-2-yl)piperidin-1-yl)methyl)-5-(5-(trifluoromethyl)-4H-1,2,4-triazol-3-yl)pyridin-3-yl)methyl)cyclopropane-1-carbonitrile], for which the EC50 is under 1 nM.
The molecule `N#CC1(Cc2cc(-c3nnc(C(F)(F)F)[nH]3)cnc2CN2CCN(c3ccnc(OCc4ccc(Cl)cc4F)n3)CC2)CC1` [Example 83] showed an EC50 of 1 to 100 nM.
`Cc1cc(-c2cnn(C)c(=O)c2)cnc1CN1CCC(c2cccc(OCc3ccc(Cl)cc3F)n2)CC1` [Example 100] yielded an EC50 of over 100 nM.
The result for `CS(=O)(=O)Cc1cc(-c2nnc(C(F)(F)F)[nH]2)cnc1CN1CCC(c2ccc(F)c(OCc3ccc(Cl)cc3F)n2)CC1` [Example 61, 2-[(4-{6-[(4-chloro-2-fluorophenyl)methoxy]-5-fluoropyridin-2-yl}piperidin-1-yl)methyl]-3-(methanesulfonylmethyl)-5-[5-(trifluoromethyl)-4H-1,2,4-triazol-3-yl]pyridine] reads under 1 nM; that for `C[C@]1(c2ccc(Cl)cc2F)Oc2cccc(C3CCN(Cc4ncc(-c5nnc(C(F)(F)F)[nH]5)cc4C#N)CC3)c2O1` [Example 93], 1 to 100 nM.
The molecule `N#CC1(Cc2cc(-c3nnc(C(F)(F)F)[nH]3)cnc2CN2CCC(c3nc(OCc4ccc(Cl)cc4F)ncc3F)CC2)CC1` [Example 35, 1-({2-[(4-{2-[(4-chloro-2-fluorophenyl)methoxy]-5-fluoropyrimidin-4-yl}piperidin-1-yl)methyl]-5-[5-(trifluoromethyl)-4H-1,2,4-triazol-3-yl]pyridin-3-yl}methyl)cyclopropane-1-carbonitrile] yielded an EC50 of 1 to 100 nM.
As for `CC1(c2ccc(F)cc2Cl)Oc2cccc(C3CCN(Cc4ncc(-c5nnc(C(F)(F)F)[nH]5)cc4CC4(C#N)CC4)CC3)c2O1` (stereo not drawn) [Example 4, 1-{[2-({4-[2-(2-chloro-4-fluorophenyl)-2-methyl-2H-1,3-benzodioxol-4-yl]piperidin-1-yl}methyl)-5-[5-(trifluoromethyl)-4H-1,2,4-triazol-3-yl]pyridin-3-yl]methyl}cyclopropane-1-carbonitrile], the EC50 is under 1 nM.
The molecule `C[C@]1(c2ccc(Cl)cc2F)Oc2cccc(C3CCN(Cc4ncc(-c5nnc(C(F)(F)F)[nH]5)cc4CC4(C#N)CC4)CC3F)c2O1` (single isomer, unassigned) [Example 28] registered an EC50 of under 1 nM.
The result for `C[C@]1(c2ccc(Cl)cc2F)Oc2cccc(C3CCN(Cc4ncc(/C=C/C(=O)O)cc4CC4(C#N)CC4)CC3)c2O1` [Example 20, (S,E)-3-(6-((4-(2-(4-chloro-2-fluorophenyl)-2-methylbenzo[d][1,3]dioxol-4-yl)piperidin-1-yl)methyl)-5-((1-cyanocyclopropyl)methyl)pyridin-3-yl)acrylic acid] reads under 1 nM.
Regarding `CN(C)C(=O)Cc1cc(-c2nnc(C(F)(F)F)[nH]2)cnc1CN1CCC(c2cccc3c2O[C@@](C)(c2ccc(Cl)cc2F)O3)CC1` [Example 56, (S)-2-(2-((4-(2-(4-chloro-2-fluorophenyl)-2-methylbenzo[d][1,3]dioxol-4-yl)piperidin-1-yl)methyl)-5-(5-(trifluoromethyl)-4H-1,2,4-triazol-3-yl)pyridin-3-yl)-N,N-dimethylacetamide], the EC50 fell in the range of 1 to 100 nM.
The same measure for `N#CC1(Cc2cc(-c3nnc(C(F)(F)F)[nH]3)cnc2CN2CCC(c3ccc(F)c(OCc4ccc(Cl)c5ccoc45)n3)CC2)CC1` [Example 63, 1-((2-((4-(6-((4-chlorobenzofuran-7-yl)methoxy)-5-fluoropyridin-2-yl)piperidin-1-yl)methyl)-5-(5-(trifluoromethyl)-4H-1,2,4-triazol-3-yl)pyridin-3-yl)methyl)cyclopropane-1-carbonitrile]: under 1 nM.
`Cc1cc(Cl)ccc1C1(C)Oc2cccc(C3CCN(Cc4ncc(-c5nnc(C(F)(F)F)[nH]5)cc4CC4(C#N)CC4)CC3)c2O1` (stereo not drawn) [Example 7, 1-((2-((4-(2-(4-chloro-2-methylphenyl)-2-methylbenzo[d][1,3]dioxol-4-yl)piperidin-1-yl)methyl)-5-(5-(trifluoromethyl)-4H-1,2,4-triazol-3-yl)pyridin-3-yl)methyl)cyclopropane-1-carbonitrile] showed an EC50 of under 1 nM.
